According to publication PMC5218480 (PLoS ONE, 2017):

Tested on: MV-4-11 cells
Experiment: Gene expression microarray analysis (Affymetrix PrimeView) and GSEA
Type: cell-based, human
Design: RFU PODN (11730768_x_at) / Fold change /veh PODN (11730768_x_at) / RFU LINC00158 (11744669_a_at) / Fold change /veh LINC00158 (11744669_a_at) / RFU DUSP10 (11751237_a_at) / Fold change /veh DUSP10 (11751237_a_at) / RFU ID3 (11757404_x_at) / Fold change /veh ID3 (11757404_x_at) / RFU PLEKHG5 (11737974_s_at) / Fold change /veh PLEKHG5 (11737974_s_at) / RFU LRRC4B (11730491_at) / Fold change /veh LRRC4B (11730491_at) / RFU GIMAP4 (11747438_a_at) / Fold change /veh GIMAP4 (11747438_a_at) / RFU KRT8 (11758183_x_at) / Fold change /veh KRT8 (11758183_x_at) / RFU CNN1 (11734310_a_at) / Fold change /veh CNN1 (11734310_a_at) / RFU VPS37D (11726825_at) / Fold change /veh VPS37D (11726825_at) / RFU C10orf10 (11716522_x_at) / Fold change /veh C10orf10 (11716522_x_at) / RFU KIR2DL2 /// KIR2DL4 /// KIR2DL5A /// KIR2DL5B /// KIR2DS1 /// KIR2DS2 /// KIR2DS3 /// KIR2DS4 /// KIR3DL3 /// KIR3DL3 /// KIR3DS1 (11738374_at) / Fold change /veh KIR2DL2 /// KIR2DL4 /// KIR2DL5A /// KIR2DL5B /// KIR2DS1 /// KIR2DS2 /// KIR2DS3 /// KIR2DS4 /// KIR3DL3 /// KIR3DL3 /// KIR3DS1 (11738374_at) / RFU C1QL1 (11718748_at) / Fold change /veh C1QL1 (11718748_at) / RFU TMPRSS4 (11747572_a_at) / Fold change /veh TMPRSS4 (11747572_a_at) / RFU HAMP (11756126_x_at) / Fold change /veh HAMP (11756126_x_at) / RFU RNFT2 (11725882_a_at) / Fold change /veh RNFT2 (11725882_a_at) / RFU NR4A2 (11747474_a_at) / Fold change /veh NR4A2 (11747474_a_at) / RFU ABCC12 (11746883_a_at) / Fold change /veh ABCC12 (11746883_a_at) / RFU TMEM136 (11760407_x_at) / Fold change /veh TMEM136 (11760407_x_at) / RFU CLDN22 /// WWC2 (11732394_at) / Fold change /veh CLDN22 /// WWC2 (11732394_at) / RFU HLA-DPB1 (11760878_x_at) / Fold change /veh HLA-DPB1 (11760878_x_at) / RFU SPINT1 (11716480_a_at) / Fold change /veh SPINT1 (11716480_a_at) / RFU GAP43 (11754022_s_at) / Fold change /veh GAP43 (11754022_s_at) / RFU A4GNT (11735810_at) / Fold change /veh A4GNT (11735810_at) / RFU PRB3 (11715151_x_at) / Fold change /veh PRB3 (11715151_x_at) / RFU TUBB4B (11761932_at) / Fold change /veh TUBB4B (11761932_at) / RFU CAPN14 (11732068_a_at) / Fold change /veh CAPN14 (11732068_a_at) / RFU TMCC2 (11721928_a_at) / Fold change /veh TMCC2 (11721928_a_at) / RFU IRGQ (11745062_a_at) / Fold change /veh IRGQ (11745062_a_at) / RFU FAM174B (11720279_a_at) / Fold change /veh FAM174B (11720279_a_at) / RFU TMPRSS4 (11748680_a_at) / Fold change /veh TMPRSS4 (11748680_a_at) / RFU FAM212B (11763350_a_at) / Fold change /veh FAM212B (11763350_a_at) / RFU PLEKHG5 (11743358_a_at) / Fold change /veh PLEKHG5 (11743358_a_at) / RFU ZSCAN30 (11745921_a_at) / Fold change /veh ZSCAN30 (11745921_a_at) / RFU CMKLR1 (11741424_a_at) / Fold change /veh CMKLR1 (11741424_a_at) / RFU LOC101060620 /// MAPK8IP1 (11723275_at) / Fold change /veh LOC101060620 /// MAPK8IP1 (11723275_at) / RFU SPTSSB (11747773_x_at) / Fold change /veh SPTSSB (11747773_x_at) / RFU PRSS12 (11739890_at) / Fold change /veh PRSS12 (11739890_at) / RFU BIN1 (11741810_x_at) / Fold change /veh BIN1 (11741810_x_at) / RFU WNT11 (11732464_a_at) / Fold change /veh WNT11 (11732464_a_at) / RFU C10orf10 (11716521_a_at) / Fold change /veh C10orf10 (11716521_a_at) / RFU C5orf56 (11738089_at) / Fold change /veh C5orf56 (11738089_at) / RFU CYB561 (11721691_x_at) / Fold change /veh CYB561 (11721691_x_at) / RFU ANKRD19P (11752326_a_at) / Fold change /veh ANKRD19P (11752326_a_at) / RFU OR2T12 /// OR2T33 /// OR2T8 (11738714_s_at) / Fold change /veh OR2T12 /// OR2T33 /// OR2T8 (11738714_s_at) / RFU VCAN (11748164_a_at) / Fold change /veh VCAN (11748164_a_at) / RFU JSRP1 (11732532_at) / Fold change /veh JSRP1 (11732532_at) / RFU KRTAP10-11 (11738290_x_at) / Fold change /veh KRTAP10-11 (11738290_x_at) / RFU MYO3A (11730013_a_at) / Fold change /veh MYO3A (11730013_a_at) / RFU EBF3 (11725865_a_at) / Fold change /veh EBF3 (11725865_a_at) / RFU CAMK2N1 (11719241_x_at) / Fold change /veh CAMK2N1 (11719241_x_at) / RFU C5orf56 (11738088_a_at) / Fold change /veh C5orf56 (11738088_a_at) / RFU OLFML3 (11715873_a_at) / Fold change /veh OLFML3 (11715873_a_at) / RFU LOC100653217 /// NTM (11731650_a_at) / Fold change /veh LOC100653217 /// NTM (11731650_a_at) / RFU MAPK11 (11762145_a_at) / Fold change /veh MAPK11 (11762145_a_at) / RFU FIZ1 (11724087_x_at) / Fold change /veh FIZ1 (11724087_x_at) / RFU OASL (11726364_x_at) / Fold change /veh OASL (11726364_x_at) / RFU SOX15 (11748057_x_at) / Fold change /veh SOX15 (11748057_x_at) / RFU CD79A (11719716_a_at) / Fold change /veh CD79A (11719716_a_at) / RFU HIST1H1D (11736915_at) / Fold change /veh HIST1H1D (11736915_at) / RFU CASKIN2 (11723855_a_at) / Fold change /veh CASKIN2 (11723855_a_at) / RFU LOC730098 (11760151_x_at) / Fold change /veh LOC730098 (11760151_x_at) / RFU OR4N2 (11742367_at) / Fold change /veh OR4N2 (11742367_at) / RFU PRRT2 (11749266_a_at) / Fold change /veh PRRT2 (11749266_a_at) / RFU SNX32 (11753110_a_at) / Fold change /veh SNX32 (11753110_a_at) / RFU CDHR5 (11726645_a_at) / Fold change /veh CDHR5 (11726645_a_at) / RFU RCAN1 (11760418_a_at) / Fold change /veh RCAN1 (11760418_a_at) / RFU FAM167A (11723789_a_at) / Fold change /veh FAM167A (11723789_a_at) / RFU FAM26E (11764081_at) / Fold change /veh FAM26E (11764081_at) / RFU ISYNA1 (11749810_s_at) / Fold change /veh ISYNA1 (11749810_s_at) / RFU ACY1 (11761880_at) / Fold change /veh ACY1 (11761880_at) / RFU 11764098_at / Fold change /veh 11764098_at / RFU SAMD14 (11745864_x_at) / Fold change /veh SAMD14 (11745864_x_at) / RFU NPB (11741838_a_at) / Fold change /veh NPB (11741838_a_at) / RFU TMPRSS6 (11731388_a_at) / Fold change /veh TMPRSS6 (11731388_a_at) / RFU KRTAP10-2 (11738614_at) / Fold change /veh KRTAP10-2 (11738614_at) / RFU ARHGAP8 /// PRR5-ARHGAP8 (11727945_x_at) / Fold change /veh ARHGAP8 /// PRR5-ARHGAP8 (11727945_x_at) / RFU KRTAP5-7 /// NADSYN1 (11734609_at) / Fold change /veh KRTAP5-7 /// NADSYN1 (11734609_at) / RFU RASL12 (11751679_a_at) / Fold change /veh RASL12 (11751679_a_at) / RFU CDKN2B (11736163_a_at) / Fold change /veh CDKN2B (11736163_a_at) / RFU PRF1 (11729649_at) / Fold change /veh PRF1 (11729649_at) / RFU, ZNF638 /// ZNF638-IT1 / Fold change vs veh, ZNF638 /// ZNF638-IT1 / RFU, PANK3 / Fold change vs veh, PANK3 / RFU, SH3YL1 / Fold change vs veh, SH3YL1 / RFU, ZEB2 / Fold change vs veh, ZEB2 / RFU, NRIP1 / Fold change vs veh, NRIP1 / RFU, PTTG1IP / Fold change vs veh, PTTG1IP / RFU, CAPN2 / Fold change vs veh, CAPN2 / RFU, MED14 / Fold change vs veh, MED14 / RFU, SNORA58 / Fold change vs veh, SNORA58 / RFU, C1orf63 / Fold change vs veh, C1orf63 / RFU, LRRFIP1 / Fold change vs veh, LRRFIP1 / RFU, NDUFAF7 / Fold change vs veh, NDUFAF7 / RFU, SLC12A2 / Fold change vs veh, SLC12A2 / RFU, IBTK / Fold change vs veh, IBTK / RFU, ESF1 / Fold change vs veh, ESF1 / Fold change vs veh, TMEM50B / RFU, TAOK1 / Fold change vs veh, TAOK1 / RFU, ACBD3 / Fold change vs veh, ACBD3 / RFU, TMA16 / Fold change vs veh, TMA16 / RFU, RWDD3 / Fold change vs veh, RWDD3 / RFU, BCAT1 / Fold change vs veh, BCAT1 / RFU, EDEM3 / Fold change vs veh, EDEM3 / RFU, TMEM33 / Fold change vs veh, TMEM33 / RFU, WDR75 / Fold change vs veh, WDR75 / RFU, AHCTF1 / Fold change vs veh, AHCTF1 / RFU, TFRC / Fold change vs veh, TFRC / RFU, ZDHHC17 / Fold change vs veh, ZDHHC17 / RFU, NOM1 / Fold change vs veh, NOM1 / RFU, ARL8B / Fold change vs veh, ARL8B / RFU, ZBTB11 / Fold change vs veh, ZBTB11 / RFU, TAMM41 / Fold change vs veh, TAMM41 / RFU, KIAA1704 /// LOC100996395 / Fold change vs veh, KIAA1704 /// LOC100996395 / RFU, ING1 / Fold change vs veh, ING1 / RFU, TRMT61B / Fold change vs veh, TRMT61B / RFU, FUBP3 / Fold change vs veh, FUBP3 / RFU, TP53 / Fold change vs veh, TP53 / RFU, TNKS2 / Fold change vs veh, TNKS2 / RFU, ZFP14 / Fold change vs veh, ZFP14 / RFU, ACTR2 / Fold change vs veh, ACTR2 / RFU, PPP3R1 / Fold change vs veh, PPP3R1 / RFU, PIK3R1 / Fold change vs veh, PIK3R1 / RFU, HNRNPA1 / Fold change vs veh, HNRNPA1 / RFU, RNF170 / Fold change vs veh, RNF170 / RFU, ZNF28 / Fold change vs veh, ZNF28 / RFU, RNGTT / Fold change vs veh, RNGTT / RFU, OGT / Fold change vs veh, OGT / RFU, BRD1 / Fold change vs veh, BRD1 / RFU, MARS / Fold change vs veh, MARS / RFU, ZNF655 / Fold change vs veh, ZNF655 / RFU, FAHD1 / Fold change vs veh, FAHD1 / RFU, BDP1 / Fold change vs veh, BDP1 / RFU, LRRCC1 / Fold change vs veh, LRRCC1 / RFU, ARID1A / Fold change vs veh, ARID1A / RFU, ZNF146 / Fold change vs veh, ZNF146 / RFU, ZNF330 / Fold change vs veh, ZNF330 / RFU, GPN3 / Fold change vs veh, GPN3 / RFU, C9orf123 / Fold change vs veh, C9orf123 / RFU, N4BP2L2 / Fold change vs veh, N4BP2L2 / RFU, ARFIP1 / Fold change vs veh, ARFIP1 / RFU, FAM179B / Fold change vs veh, FAM179B / RFU, BCL10 / Fold change vs veh, BCL10 / RFU, UHRF1BP1L / Fold change vs veh, UHRF1BP1L / RFU, BET1 / Fold change vs veh, BET1 / RFU, CNOT2 / Fold change vs veh, CNOT2 / RFU, ZNF268 / Fold change vs veh, ZNF268 / Fold change vs veh, ZNF507 / RFU, DGCR2 / Fold change vs veh, DGCR2 / RFU, WDSUB1 / Fold change vs veh, WDSUB1 / Fold change vs veh, HSP90B1 /// MIR3652 / RFU, ADSS / Fold change vs veh, ADSS / RFU, GK / Fold change vs veh, GK / RFU, ZNF148 / Fold change vs veh, ZNF148 / RFU, TAF9 / Fold change vs veh, TAF9 / RFU, SLC1A5 / Fold change vs veh, SLC1A5 / RFU, SLMO2 / Fold change vs veh, SLMO2 / RFU, ABCC4 / Fold change vs veh, ABCC4 / RFU, LOC101060439 /// RAP1B / Fold change vs veh, LOC101060439 /// RAP1B / RFU, RFX7 / Fold change vs veh, RFX7 / RFU, GTPBP10 / Fold change vs veh, GTPBP10 / RFU, CNEP1R1 / Fold change vs veh, CNEP1R1 / RFU, BIVM-ERCC5 /// ERCC5 / Fold change vs veh, BIVM-ERCC5 /// ERCC5 / RFU, ILF3 / Fold change vs veh, ILF3 / RFU 11762660_at / Fold change /veh 11762660_at / RFU VCAN (11757783_s_at) / Fold change /veh VCAN (11757783_s_at) / RFU DDX43 (11728927_at) / Fold change /veh DDX43 (11728927_at) / RFU KRT8 (11758188_x_at) / Fold change /veh KRT8 (11758188_x_at) / RFU NKD1 (11759106_at) / Fold change /veh NKD1 (11759106_at) / RFU SRD5A1 (11742802_a_at) / Fold change /veh SRD5A1 (11742802_a_at) / RFU TPSAB1 /// TPSB2 (11721975_s_at) / Fold change /veh TPSAB1 /// TPSB2 (11721975_s_at) / RFU GSTM3 (11746129_a_at) / Fold change /veh GSTM3 (11746129_a_at) / RFU IL23R (11737362_x_at) / Fold change /veh IL23R (11737362_x_at) / RFU TMEM51 (11727254_a_at) / Fold change /veh TMEM51 (11727254_a_at) / RFU PIWIL2 (11732686_x_at) / Fold change /veh PIWIL2 (11732686_x_at) / RFU ORM1 (11744905_x_at) / Fold change /veh ORM1 (11744905_x_at) / RFU CCDC152 (11743942_at) / Fold change /veh CCDC152 (11743942_at) / RFU ECM1 (11717891_a_at) / Fold change /veh ECM1 (11717891_a_at) / RFU IL23R (11748794_a_at) / Fold change /veh IL23R (11748794_a_at) / RFU TNFAIP8L3 (11732012_x_at) / Fold change /veh TNFAIP8L3 (11732012_x_at) / RFU MBOAT4 (11741988_at) / Fold change /veh MBOAT4 (11741988_at) / RFU 11764193_at / Fold change /veh 11764193_at / RFU TMEM53 (11763286_at) / Fold change /veh TMEM53 (11763286_at) / RFU MAGEB2 (11727129_at) / Fold change /veh MAGEB2 (11727129_at) / RFU TMEM200A (11744735_a_at) / Fold change /veh TMEM200A (11744735_a_at) / RFU CCDC152 (11751479_a_at) / Fold change /veh CCDC152 (11751479_a_at) / RFU FAM211A (11726209_a_at) / Fold change /veh FAM211A (11726209_a_at) / RFU RGS16 (11746705_a_at) / Fold change /veh RGS16 (11746705_a_at) / RFU VCAN (11755009_s_at) / Fold change /veh VCAN (11755009_s_at) / RFU RHOB (11743442_s_at) / Fold change /veh RHOB (11743442_s_at) / RFU RGS16 (11720943_a_at) / Fold change /veh RGS16 (11720943_a_at) / RFU RGS16 (11720944_at) / Fold change /veh RGS16 (11720944_at) / RFU, VPS4B / Fold change vs veh, VPS4B / RFU, CREB1 / Fold change vs veh, CREB1 / RFU, DNAJC13 / Fold change vs veh, DNAJC13 / RFU, GNAQ / Fold change vs veh, GNAQ / RFU, CDK5R1 / Fold change vs veh, CDK5R1 / RFU, ZRANB3 / Fold change vs veh, ZRANB3 / RFU, CUL4A / Fold change vs veh, CUL4A / RFU, CCNY / Fold change vs veh, CCNY / RFU, UFL1 / Fold change vs veh, UFL1 / RFU, COG3 / Fold change vs veh, COG3 / RFU, DIAPH2 / Fold change vs veh, DIAPH2 / RFU, SKA2 / Fold change vs veh, SKA2 / RFU, AFF3 / Fold change vs veh, AFF3 / RFU, LMF1 / Fold change vs veh, LMF1 / RFU, IPO11 / Fold change vs veh, IPO11 / RFU, DFFB / Fold change vs veh, DFFB / RFU, FOXP1 / Fold change vs veh, FOXP1 / RFU, CARD8 / Fold change vs veh, CARD8 / RFU, STRN3 / Fold change vs veh, STRN3 / RFU, ADK / Fold change vs veh, ADK / RFU, RASSF2 / Fold change vs veh, RASSF2 / RFU, WIPF1 / Fold change vs veh, WIPF1 / RFU, LARP1B / Fold change vs veh, LARP1B / RFU, RASA1 / Fold change vs veh, RASA1 / RFU, RB1 / Fold change vs veh, RB1 / RFU, PPFIA1 / Fold change vs veh, PPFIA1 / RFU, MAT2A / Fold change vs veh, MAT2A / RFU, CCT5 / Fold change vs veh, CCT5 / RFU, WDR92 / Fold change vs veh, WDR92 / RFU, CUX1 / Fold change vs veh, CUX1 / RFU, TTC7A / Fold change vs veh, TTC7A / RFU, TMEM135 / Fold change vs veh, TMEM135 / RFU, DEPTOR / Fold change vs veh, DEPTOR / RFU, CPM / Fold change vs veh, CPM / RFU, DNAJB6 / Fold change vs veh, DNAJB6 / RFU, CACNA2D3 / Fold change vs veh, CACNA2D3 / RFU, DTX4 / Fold change vs veh, DTX4 / RFU, TFCP2 / Fold change vs veh, TFCP2 / RFU, GMCL1 /// GMCL1P1 / Fold change vs veh, GMCL1 /// GMCL1P1 / RFU, AEBP2 / Fold change vs veh, AEBP2 / RFU, SNHG1 /// SNORD22 /// SNORD25 /// SNORD26 /// SNORD27 /// SNORD28 /// SNORD29 /// SNORD31 / Fold change vs veh, SNHG1 /// SNORD22 /// SNORD25 /// SNORD26 /// SNORD27 /// SNORD28 /// SNORD29 /// SNORD31 / Fold change (Aza/veh), C12orf56 (ProbeSet 11735607_a_at) / Fold change (ACY-1035/veh), C12orf56 (ProbeSet 11735607_a_at) / Fold change (Aza/veh), FGFR1OP (ProbeSet 11751329_s_at) / Fold change (ACY-1035/veh), FGFR1OP (ProbeSet 11751329_s_at) / Fold change (Aza/veh), VPS36 (ProbeSet 11739960_a_at) / Fold change (ACY-1035/veh), VPS36 (ProbeSet 11739960_a_at) / RFU SYPL1 (11715823_x_at) / Fold change /veh SYPL1 (11715823_x_at) / RFU IGFBP7 (11715501_s_at) / Fold change /veh IGFBP7 (11715501_s_at) / RFU REEP3 (11722064_at) / Fold change /veh REEP3 (11722064_at) / RFU IGLL1 (11728026_x_at) / Fold change /veh IGLL1 (11728026_x_at): dose or concentration left out as unconfirmed
Settings: ProbeSet 11729384_s_at; LIST D

Nc1ccc(-c2cccs2)cc1NC(=O)c1ccc2c(c1)cc(C1CC1)n2CCN1CCOCC1 [ACY-1035]
Fold change vs veh, CCNY: 0.87
